Measured values published in PubChem BioAssay (NCI).
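Assay format: 96-well plates, 48-hour exposure. TGI marks complete inhibition of growth.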

tested on: OVCAR-5 ovarian; assay: NCI anticancer screen, dose series, 48 h

| SMILES | TGI |
| --- | --- |
| CNn1c(-c2ccccc2)n[nH]c1=O | > 100 µM |
| CS(=O)(=O)Nc1ccc(N2Cc3cnc4ccc5[nH]ccc2c5c34)cc1 | 84.5 µM |
| CC(C)(C)OC(=O)NCC(O)CNC(=O)OC(C)(C)C | > 100 µM |
| CCc1nc(N)nc(N)c1-c1ccc(Cl)c(Cl)c1 | > 100 µM |
| NS(=O)(=O)c1nn2c(Br)c(-c3ccccc3)nc2s1 | 24.3 µM |
| CC1=C(C#N)C(C#N)(C#N)C(NN(C)C)C1 (stereo unspecified) | 47.4 µM |
| COc1nc(C(=O)NNC(=O)c2nc(OC)c3ccccc3c2-c2ccccc2)c(-c2ccccc2)c2ccccc12 | > 100 µM |
| CCOC(=O)C1=C(C)N(C)C23OC4(C(=O)OC)CC2c2ccccc2C1N3C4=O (stereo unspecified) | > 100 µM |
| CC(=O)OCc1cc(CCC(=O)NCCNc2c3ccccc3nc3ccccc23)cc(COC(C)=O)c1O[Si](C)(C)C(C)(C)C | 29.1 µM |
| CC(=O)NC1C(OCc2ccccc2)OC(CO)C(O)C1OC(C)C(=O)NC(C)C(=O)NC(CCC(=O)NCCCNc1c2ccccc2nc2cccc([N+](=O)[O-])c12)C(N)=O (stereo unspecified) | 8.02 µM |
| Cc1ccc(/C=N/n2c(=O)[nH]c3ccccc3c2=O)cc1 | > 100 µM |
| Cc1nc2ccccc2c(=O)n1NC(=O)c1ccc(CS)cc1 | 83.9 µM |
| c1ccc2sc(C3(N4CCCC4)CCCCCC3)cc2c1 | 25.2 µM |

tested on: PC-3 prostate; assay: NCI anticancer screen, dose series, 48 h

| SMILES | TGI |
| --- | --- |
| NC(Cc1cccc([N+](=O)[O-])c1)C(=O)O (stereo unspecified) | > 100 µM |
| CCCCCN=Cc1c(O)c(O)c(C(C)C)c2cc(C)c(-c3c(C)cc4c(C(C)C)c(O)c(O)c(C=NCCCCC)c4c3O)c(O)c12 | 41.1 µM |
| O=C(O)/C=N\Nc1nc2ccccc2[nH]1 | > 100 µM |
| Clc1c(Cl)c(Cl)c2nn(C3CCCO3)nc2c1Cl (stereo unspecified) | > 100 µM |
| CC(=O)OCCn1cnc2nc(Nc3ccccc3)nc(Cl)c21 | > 100 µM |
| N#C/C(C(=O)Nc1ccccc1)=C(/N)N1CCOCC1 | > 100 µM |
| O/N=C1/COC(C(F)(F)F)(C(F)(F)F)C1 | > 100 µM |
| CNn1c(-c2ccccc2)n[nH]c1=O | > 100 µM |
| CS(=O)(=O)Nc1ccc(N2Cc3cnc4ccc5[nH]ccc2c5c34)cc1 | 42 µM |
| CC(C)(C)OC(=O)NCC(O)CNC(=O)OC(C)(C)C | > 100 µM |
| CCc1nc(N)nc(N)c1-c1ccc(Cl)c(Cl)c1 | > 100 µM |
| NS(=O)(=O)c1nn2c(Br)c(-c3ccccc3)nc2s1 | 18.5 µM |
| CC1=C(C#N)C(C#N)(C#N)C(NN(C)C)C1 (stereo unspecified) | 46.6 µM |
| COc1nc(C(=O)NNC(=O)c2nc(OC)c3ccccc3c2-c2ccccc2)c(-c2ccccc2)c2ccccc12 | > 100 µM |
| CCOC(=O)C1=C(C)N(C)C23OC4(C(=O)OC)CC2c2ccccc2C1N3C4=O (stereo unspecified) | > 100 µM |
| CC(=O)OCc1cc(CCC(=O)NCCNc2c3ccccc3nc3ccccc23)cc(COC(C)=O)c1O[Si](C)(C)C(C)(C)C | 29.3 µM |
| Cc1ccc(/C=N/n2c(=O)[nH]c3ccccc3c2=O)cc1 | > 100 µM |
| Cc1nc2ccccc2c(=O)n1NC(=O)c1ccc(CS)cc1 | 19.2 µM |

tested on: RXF 393 renal; assay: NCI anticancer screen, dose series, 48 h

| SMILES | TGI |
| --- | --- |
| CC(=O)Nc1cc(C(=O)Nc2cc(C(=O)N3CC(CCl)c4c3cc(N)c3ccccc43)nn2C)nn1C (stereo unspecified) | 0.226 µM |
| NC(Cc1cccc([N+](=O)[O-])c1)C(=O)O (stereo unspecified) | > 100 µM |
| CCCCCN=Cc1c(O)c(O)c(C(C)C)c2cc(C)c(-c3c(C)cc4c(C(C)C)c(O)c(O)c(C=NCCCCC)c4c3O)c(O)c12 | 46.8 µM |
| Clc1c(Cl)c(Cl)c2nn(C3CCCO3)nc2c1Cl (stereo unspecified) | > 100 µM |
| O/N=C1/COC(C(F)(F)F)(C(F)(F)F)C1 | > 100 µM |
| CC(C)(C)OC(=O)NCC(O)CNC(=O)OC(C)(C)C | > 100 µM |
| CCc1nc(N)nc(N)c1-c1ccc(Cl)c(Cl)c1 | > 100 µM |
| NS(=O)(=O)c1nn2c(Br)c(-c3ccccc3)nc2s1 | 9.48 µM |
| CC1=C(C#N)C(C#N)(C#N)C(NN(C)C)C1 (stereo unspecified) | 31.3 µM |
| COc1nc(C(=O)NNC(=O)c2nc(OC)c3ccccc3c2-c2ccccc2)c(-c2ccccc2)c2ccccc12 | > 100 µM |
| CC(=O)OCc1cc(CCC(=O)NCCNc2c3ccccc3nc3ccccc23)cc(COC(C)=O)c1O[Si](C)(C)C(C)(C)C | 9.37 µM |
| CC(=O)NC1C(OCc2ccccc2)OC(CO)C(O)C1OC(C)C(=O)NC(C)C(=O)NC(CCC(=O)NCCCNc1c2ccccc2nc2cccc([N+](=O)[O-])c12)C(N)=O (stereo unspecified) | 3.04 µM |
| c1ccc2sc(C3(N4CCCC4)CCCCCC3)cc2c1 | 25.7 µM |

tested on: SF-539 CNS; assay: NCI anticancer screen, dose series, 48 h

| SMILES | TGI |
| --- | --- |
| CC(=O)Nc1cc(C(=O)Nc2cc(C(=O)N3CC(CCl)c4c3cc(N)c3ccccc43)nn2C)nn1C (stereo unspecified) | 0.0549 µM |
| NC(Cc1cccc([N+](=O)[O-])c1)C(=O)O (stereo unspecified) | > 100 µM |
| CCCCCN=Cc1c(O)c(O)c(C(C)C)c2cc(C)c(-c3c(C)cc4c(C(C)C)c(O)c(O)c(C=NCCCCC)c4c3O)c(O)c12 | > 100 µM |
| O=C(O)/C=N\Nc1nc2ccccc2[nH]1 | > 100 µM |
| Clc1c(Cl)c(Cl)c2nn(C3CCCO3)nc2c1Cl (stereo unspecified) | > 100 µM |
| CC(=O)OCCn1cnc2nc(Nc3ccccc3)nc(Cl)c21 | > 100 µM |
| N#C/C(C(=O)Nc1ccccc1)=C(/N)N1CCOCC1 | > 100 µM |
| O/N=C1/COC(C(F)(F)F)(C(F)(F)F)C1 | > 100 µM |
| CNn1c(-c2ccccc2)n[nH]c1=O | > 100 µM |
| CC(C)(C)OC(=O)NCC(O)CNC(=O)OC(C)(C)C | > 100 µM |
| CCc1nc(N)nc(N)c1-c1ccc(Cl)c(Cl)c1 | > 100 µM |
| NS(=O)(=O)c1nn2c(Br)c(-c3ccccc3)nc2s1 | 3.95 µM |
| CC1=C(C#N)C(C#N)(C#N)C(NN(C)C)C1 (stereo unspecified) | > 100 µM |
| CCOC(=O)C1=C(C)N(C)C23OC4(C(=O)OC)CC2c2ccccc2C1N3C4=O (stereo unspecified) | > 100 µM |
| CC(=O)OCc1cc(CCC(=O)NCCNc2c3ccccc3nc3ccccc23)cc(COC(C)=O)c1O[Si](C)(C)C(C)(C)C | 4.99 µM |
| CC(=O)NC1C(OCc2ccccc2)OC(CO)C(O)C1OC(C)C(=O)NC(C)C(=O)NC(CCC(=O)NCCCNc1c2ccccc2nc2cccc([N+](=O)[O-])c12)C(N)=O (stereo unspecified) | 19.3 µM |
| Cc1ccc(/C=N/n2c(=O)[nH]c3ccccc3c2=O)cc1 | > 100 µM |
| Cc1nc2ccccc2c(=O)n1NC(=O)c1ccc(CS)cc1 | 26.6 µM |
| c1ccc2sc(C3(N4CCCC4)CCCCCC3)cc2c1 | 41.2 µM |

tested on: SK-MEL-28 melanoma; assay: NCI anticancer screen, dose series, 48 h

| SMILES | TGI |
| --- | --- |
| CC(=O)Nc1cc(C(=O)Nc2cc(C(=O)N3CC(CCl)c4c3cc(N)c3ccccc43)nn2C)nn1C (stereo unspecified) | 0.154 µM |
| NC(Cc1cccc([N+](=O)[O-])c1)C(=O)O (stereo unspecified) | > 100 µM |
| CCCCCN=Cc1c(O)c(O)c(C(C)C)c2cc(C)c(-c3c(C)cc4c(C(C)C)c(O)c(O)c(C=NCCCCC)c4c3O)c(O)c12 | 26.5 µM |
| O=C(O)/C=N\Nc1nc2ccccc2[nH]1 | > 100 µM |
| CC(=O)OCCn1cnc2nc(Nc3ccccc3)nc(Cl)c21 | > 100 µM |
| O=C1OC[C@@H]2Cc3cc4c(cc3[C@H](c3ccc5c(c3)OCO5)[C@@H]12)OCO4 | > 25 µM |
| N#C/C(C(=O)Nc1ccccc1)=C(/N)N1CCOCC1 | > 100 µM |
| O/N=C1/COC(C(F)(F)F)(C(F)(F)F)C1 | > 100 µM |
| CNn1c(-c2ccccc2)n[nH]c1=O | > 100 µM |
| CS(=O)(=O)Nc1ccc(N2Cc3cnc4ccc5[nH]ccc2c5c34)cc1 | 41.6 µM |
| CC(C)(C)OC(=O)NCC(O)CNC(=O)OC(C)(C)C | > 100 µM |
| CCc1nc(N)nc(N)c1-c1ccc(Cl)c(Cl)c1 | > 100 µM |
| NS(=O)(=O)c1nn2c(Br)c(-c3ccccc3)nc2s1 | 23.1 µM |
| CC1=C(C#N)C(C#N)(C#N)C(NN(C)C)C1 (stereo unspecified) | > 100 µM |
| COc1nc(C(=O)NNC(=O)c2nc(OC)c3ccccc3c2-c2ccccc2)c(-c2ccccc2)c2ccccc12 | > 100 µM |
| CCOC(=O)C1=C(C)N(C)C23OC4(C(=O)OC)CC2c2ccccc2C1N3C4=O (stereo unspecified) | > 100 µM |
| CC(=O)OCc1cc(CCC(=O)NCCNc2c3ccccc3nc3ccccc23)cc(COC(C)=O)c1O[Si](C)(C)C(C)(C)C | 18.2 µM |
| CC(=O)NC1C(OCc2ccccc2)OC(CO)C(O)C1OC(C)C(=O)NC(C)C(=O)NC(CCC(=O)NCCCNc1c2ccccc2nc2cccc([N+](=O)[O-])c12)C(N)=O (stereo unspecified) | 8.04 µM |
| Cc1ccc(/C=N/n2c(=O)[nH]c3ccccc3c2=O)cc1 | > 100 µM |
| Cc1nc2ccccc2c(=O)n1NC(=O)c1ccc(CS)cc1 | 28.8 µM |
| c1ccc2sc(C3(N4CCCC4)CCCCCC3)cc2c1 | 37.9 µM |

tested on: SN12C renal; assay: NCI anticancer screen, dose series, 48 h

| SMILES | TGI |
| --- | --- |
| CC(=O)Nc1cc(C(=O)Nc2cc(C(=O)N3CC(CCl)c4c3cc(N)c3ccccc43)nn2C)nn1C (stereo unspecified) | 0.0102 µM |
| NC(Cc1cccc([N+](=O)[O-])c1)C(=O)O (stereo unspecified) | > 100 µM |
| CCCCCN=Cc1c(O)c(O)c(C(C)C)c2cc(C)c(-c3c(C)cc4c(C(C)C)c(O)c(O)c(C=NCCCCC)c4c3O)c(O)c12 | > 100 µM |
| O=C(O)/C=N\Nc1nc2ccccc2[nH]1 | > 100 µM |
| Clc1c(Cl)c(Cl)c2nn(C3CCCO3)nc2c1Cl (stereo unspecified) | > 100 µM |
| CC(=O)OCCn1cnc2nc(Nc3ccccc3)nc(Cl)c21 | > 100 µM |
| O=C1OC[C@@H]2Cc3cc4c(cc3[C@H](c3ccc5c(c3)OCO5)[C@@H]12)OCO4 | > 25 µM |
